Measured values from the pKa sets of Baltruschat and Czodrowski (2020).

Structure (SMILES)	pKa (acidic group)	pKa (basic group)
CCC/C=C(/C)C(=O)O	4.44	
CCCC[NH+](CCS)CCCC	7.76	
Nc1cccc2ccnnc12		3.68
CN1[C@@H](CC(=O)c2ccccc2)CCC[C@H]1C[C@@H](O)c1ccccc1		8
CCCCCCCCN1CCCCC1		8.28
C1OC1CN(CC1CO1)CC1CO1 (configuration not stated)		5.01
C[C@H](N)[C@H](O)c1ccccc1		8.81
C#C[C@]1(O)C[C@@H](C)N[C@H]2CCCC[C@@H]21		9.29
O=C1CCCC(=O)C1	5.26	
CC(N)c1ccccc1 (configuration not stated)		9.36
CN(C)CCCCC(=O)Oc1ccccc1		10
Nc1nccc([O-])n1		9.42
COc1ncc2ccccc2n1		1.31
CC(=O)Nc1cccc2cc3ccccc3nc12		3
O=c1cc(-c2ccccc2)oc2cc(O)ccc12	7.39	
CN1CCCCN1C		6.66
CCOc1ccccc1/C=C\C(=O)O	4.35	
O=S(=O)(Cc1ccccc1)c1ncn[nH]1	6.23	
Cc1cc(C)cc(C(=N)c2ccccc2)c1		6.82
C[C@H](N)[C@H](O)c1ccc(O)cc1		8.69
Cc1ccc(O)c([O-])c1	13.3	
CC#CCC(=O)O	3.6	
C=C(C)C(=O)NC(C)CN(C)C (configuration not stated)		8.51
O=C1Oc2ccccc2C(=O)C1Cc1c([O-])c2ccccc2oc1=O (configuration not stated)	8.3	

Structure (SMILES)	pKa (acidic group)	pKa (basic group)
CC(C)(C)c1cc(/C=C/C(=O)[O-])cc(C(C)(C)C)c1O	11.1	
Cn1cnc(C(=O)O)c1C(=O)O	-0.56	
CCCCCCCCCCCCCCCCCC(=O)O	5.01	
Cn1ccc(=O)c2ccccc21		2.36
CC(O)[C@@H]1C[NH2+][C@H](C(=O)[O-])[C@H]1CC(=O)O (some centres not stated)	4.35	
CC1CNCc2ccccc2OCCOc2ccccc2C[NH2+]1 (configuration not stated)		6.01
CCC(=O)NO	9.46	
O=C(O)/C=C/c1cccc(O)c1	4.4	
Cc1cc(=O)oc2cc(O)ccc12	7.8	
CCCN(CC)C(CC)C(=O)Nc1c(C)cccc1C (configuration not stated)		6.62
CC1C(=O)OC(C(C)(C)C)C1=O (configuration not stated)		4.84
CCOc1cccc(C(=O)N[C@@H]2C[C@H]3CC[C@@H](C2)N3Cc2ccccc2)c1OC		8.78
O=C1Cc2c1ccc(O)c2[N+](=O)[O-]	3.98	
OCCN(CCc1nnn[n-]1)CCc1nnn[n-]1		8.9
CN(CC[NH+](C)C)c1ccnc2cccc([N+](=O)[O-])c12		4.86
Cc1ccccc1C(O)C(C(=O)O)c1ccc(-c2ccccc2)cc1 (configuration not stated)	4.19	
CC(=O)c1ccc(C(=O)O)s1	3	
CCCCCCCCCc1c(-c2ccccc2)nn(-c2ccccc2)c1O	7.2	
O/N=C(/Cc1ccccc1)NO	10.7	4.25
C[C@@H]1CC[C@H](C)[C@@H]1C(=O)O	5.4	
c1cc([C@@H]2CCCN2)nc([C@@H]2CCC[NH2+]2)c1		9.39
NC1=[NH+][C@@H](CC(=O)O)C(=O)N1CCCC([NH3+])C(=O)O (some centres not stated)	1.86	
O=[N+]([O-])c1ccc([O-])c(CN2CCOCCOCCOCCOCCOCC2)c1		9.59
CC1(C)O[C@@H]2CC(=O)OC[C@]23[C@@H]1CC(=O)[C@@]1(C)[C@H]3C[C@](C)(CC2CCOC2)C[C@]12O[C@H]2C(=O)O (some centres not stated)	2.7	

Structure (SMILES)	pKa (acidic group)	pKa (basic group)
Nc1nc[nH+]c2c1ncn2CCOCP(=O)(O)O	1.22	-0.35
c1csc(-c2nccs2)n1		2.76
CCC(C)(C)N		10.9
Nc1ccnc(-c2ccccn2)c1		8.1
COC(=O)C1=C(C(=O)OC)CC=C1	5	
NNC(=O)c1ccc(N)cc1		3.56
CC(P)C(=O)O (configuration not stated)	4.15	
CC(C)N1CCCC1		11.2
CCN(C)N(C)C		6.38
CCCOC(=O)c1ccc(N)cc1		2.49
O=C(O)c1nccs1		2.57
C[NH+](C)CCc1c[nH]c2cccc(O)c12	8.47	
O=c1ccn([C@@H]2C[C@@H](O)[C@H](CO)O2)c(=O)[nH]1	9.3	
CCN(C)c1ccccc1		6.02
CCOc1ccc(Nc2ccccc2)cc1		1.41
COc1c(C)ncc(CO)c1C=O		4.75
[NH3+]c1ccc(-c2nc3ccccc3s2)cc1		0.1
Nc1ccc2[nH]c(=O)[nH]c2c1		5
O=C([O-])c1ccc2sc(Cn3ccnc3)cc2c1		6.34
Cc1ccc(C(=O)O)c(C)c1	4.18	
N=C(N)Nc1nc(N)nc(NC(=N)N)n1		9.8
Cn1cnc2nc([O-])[nH]c(=S)c21	12.1	
CCN(CC)NC		7.14
c1cc2nccnc2cn1		2.5

Structure (SMILES)	pKa (acidic group)	pKa (basic group)
CNCC(C)CNC		10.6
Cc1c(N)ccc2c1-c1ccccc1C2		4.83
O=C(O)c1ccc(/N=C/c2ccccc2)cc1	4.47	1.97
COCCNc1ccc(OC)cc1		5.02
O=C(O)[C@H](O)c1ccccc1[N+](=O)[O-]	3.15	
NCc1cccc(O)c1O		8.3
CC(C)=C(C#N)C(=O)O	3.04	
C[C@H](N)[C@H](C)N		9.84
C[NH2+]CCNCCN		9.57
O=C(O)CCc1ccccc1	4.59	
CN(C)/C=N/c1cccc([N+](=O)[O-])c1		7.29
CC(C)N/C=N/c1ccc(-c2c[nH]cn2)cc1		8.88
Cc1ccc(C(=O)O)c(I)c1	3.2	
C1CN2CCCN2C1		7.95
O=S(Cc1ccccc1)c1ncn[nH]1 (configuration not stated)	7.38	
Cn1cc2ccccc2n1		2.13
C#CCN1CCN(C(=O)OCC)CC1		5.44
Nc1cccc2cccc([N+](=O)[O-])c12		2.79
Cn1nc(/N=N/O)nc1N1CCCCC1	5.46	
COc1ccc(C(N)=O)cc1		-1.6
c1ccc(N=C(Nc2ccccc2)Nc2ccccc2)cc1		9.1
O=S(=O)([O-])c1c(O)ccc2cn[nH]c12	9.45	
CCC[C@H]1NC(C(=O)[O-])CS1 (some centres not stated)		6.25
CN(C)Cc1cccc(O)c1O		8.01

Structure (SMILES)	pKa (acidic group)	pKa (basic group)
COc1ccc2c(c1)CCC(=O)C2	13.3	
N#CC(CCC(=O)O)c1ccccc1 (configuration not stated)	4.4	
O=C([O-])Cc1nnn[nH]1	5.32	
CC(C)C(Br)C(=O)O (configuration not stated)	2.82	
COc1ccc(/N=N/c2c(N)n[nH]c2N)cc1		3.39
OCCc1cnc(P(c2ncc(CCO)[nH]2)c2[nH]c(CCO)c[nH+]2)[nH]1		6.84
C(=C\c1ccncc1)/c1ccccc1		5.97
Cc1nonc1NS(=O)(=O)c1ccc(N)cc1	4	
Nc1n[nH]c2ccccc12		3.15
CCC(C(=O)O)C(=O)N1CCCCC1 (configuration not stated)	3.86	
CON		4.62
[NH3+]C1CCN(Cc2ccccc2)CC1		7.05
Cn1cnc2[nH]c(=O)[nH]c(=S)c21	6.8	0.3
CCOc1ccc2ccc(OCC)c(N3CCOCC3)c2c1N1CCOCC1		12.5
C=C(C)[C@H]1C[NH2+][C@H](C(=O)[O-])[C@H]1CC(=O)O	4.43	
[NH3+]CCC(=O)NC(Cc1c[nH]c[nH+]1)C(=O)O (configuration not stated)	2.96	
Nc1nc2nc[nH]c2c(N)[n+]1[O-]	9.7	3.7
C=CCNCCCCCCCCCCC(=O)[O-]		9.3
Nc1cccc(C(=O)[O-])c1		4.7
CC1=CCCN1C		11.9
CC(=O)C(=NO)C(C)=O	7.44	
